From patent publication US20230365537A1, “POLO LIKE KINASE 4 INHIBITORS” (ORIC Pharmaceuticals, Inc., priority 2021, published 2023)

Legend:
[1] = target: human recombinant PLK4 (Homo sapiens (Human), UniProt O00444); test: PLK4 Biochemical Assay (ADP-Glo); details: 0.5 nM PLK4, 8.0 µM ATP, 4.7 µM MBP, 6 hours at RT
Procedure, shortened: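 Luminescent ADP-Glo detection quantified ADP production, with ATP depletion for 40 min and detection for 30 min at room temperature. Compound and PLK4 (1.0 nM stock addition) were preincubated 15 min in HEPES pH 7.5 buffer containing MgCl2, EGTA, DTT, Brij-35 and BSA. IC50 values were obtained by four-parameter nonlinear regression.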

[2] = system: CHP-134 cells; test: CHP134 CellTiter-Glo (CTG) Assay; type: cell-based; details: Homo sapiens, CHP-134, 120 h, 5 days, viable cells by CellTiter-Glo
Procedure, shortened: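 Nine-point 1:3 dilution series, diluted into growth media, added in quadruplicate to CHP-134 cells plated 16 h earlier at 200 cells/well.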

[3] = target: human recombinant Aurora A (Homo sapiens (Human), UniProt O14965); test: Aurora A Kinase Biochemical Assay (ADP-Glo); details: ratio of Aurora A IC50 to PLK4 IC50 (selectivity)
human recombinant Aurora A, sequence (O14965 whole entry): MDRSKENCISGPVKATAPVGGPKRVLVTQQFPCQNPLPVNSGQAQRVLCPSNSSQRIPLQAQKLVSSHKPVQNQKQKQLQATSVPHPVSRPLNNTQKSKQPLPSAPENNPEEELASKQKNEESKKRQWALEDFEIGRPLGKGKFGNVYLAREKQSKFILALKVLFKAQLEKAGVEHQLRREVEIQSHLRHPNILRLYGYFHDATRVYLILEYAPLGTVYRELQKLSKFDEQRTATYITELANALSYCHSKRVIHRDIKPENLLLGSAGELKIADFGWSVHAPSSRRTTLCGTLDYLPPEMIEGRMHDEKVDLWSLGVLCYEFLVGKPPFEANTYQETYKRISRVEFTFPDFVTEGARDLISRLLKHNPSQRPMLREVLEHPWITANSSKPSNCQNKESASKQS

[4] = target: human recombinant Aurora B (Homo sapiens (Human), UniProt Q96GD4); test: Aurora B Kinase Biochemical Assay (ADP-Glo); details: ratio of Aurora B IC50 to PLK4 IC50 (selectivity)
human recombinant Aurora B, sequence (Q96GD4 whole entry): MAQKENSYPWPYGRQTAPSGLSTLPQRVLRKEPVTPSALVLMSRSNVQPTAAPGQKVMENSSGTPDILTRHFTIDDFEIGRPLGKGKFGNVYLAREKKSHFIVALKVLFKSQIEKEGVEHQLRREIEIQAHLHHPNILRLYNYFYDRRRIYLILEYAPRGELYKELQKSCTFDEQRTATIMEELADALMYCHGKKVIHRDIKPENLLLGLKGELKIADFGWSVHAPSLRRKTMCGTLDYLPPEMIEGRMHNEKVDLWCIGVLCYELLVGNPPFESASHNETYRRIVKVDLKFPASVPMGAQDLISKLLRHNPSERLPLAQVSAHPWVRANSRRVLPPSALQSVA
Procedure, shortened: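 IC50 derived by four-parameter nonlinear fit of ADP-Glo luminescence (ADP produced). Compound was preincubated 15 min at RT with 20 nM recombinant human Aurora B, in 50 mM HEPES pH 7.5, 10 mM MgCl2, 1 mM EGTA, 1 mM DTT, 0.01% Brij-35/BSA.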

human recombinant PLK4, sequence (O00444 whole entry): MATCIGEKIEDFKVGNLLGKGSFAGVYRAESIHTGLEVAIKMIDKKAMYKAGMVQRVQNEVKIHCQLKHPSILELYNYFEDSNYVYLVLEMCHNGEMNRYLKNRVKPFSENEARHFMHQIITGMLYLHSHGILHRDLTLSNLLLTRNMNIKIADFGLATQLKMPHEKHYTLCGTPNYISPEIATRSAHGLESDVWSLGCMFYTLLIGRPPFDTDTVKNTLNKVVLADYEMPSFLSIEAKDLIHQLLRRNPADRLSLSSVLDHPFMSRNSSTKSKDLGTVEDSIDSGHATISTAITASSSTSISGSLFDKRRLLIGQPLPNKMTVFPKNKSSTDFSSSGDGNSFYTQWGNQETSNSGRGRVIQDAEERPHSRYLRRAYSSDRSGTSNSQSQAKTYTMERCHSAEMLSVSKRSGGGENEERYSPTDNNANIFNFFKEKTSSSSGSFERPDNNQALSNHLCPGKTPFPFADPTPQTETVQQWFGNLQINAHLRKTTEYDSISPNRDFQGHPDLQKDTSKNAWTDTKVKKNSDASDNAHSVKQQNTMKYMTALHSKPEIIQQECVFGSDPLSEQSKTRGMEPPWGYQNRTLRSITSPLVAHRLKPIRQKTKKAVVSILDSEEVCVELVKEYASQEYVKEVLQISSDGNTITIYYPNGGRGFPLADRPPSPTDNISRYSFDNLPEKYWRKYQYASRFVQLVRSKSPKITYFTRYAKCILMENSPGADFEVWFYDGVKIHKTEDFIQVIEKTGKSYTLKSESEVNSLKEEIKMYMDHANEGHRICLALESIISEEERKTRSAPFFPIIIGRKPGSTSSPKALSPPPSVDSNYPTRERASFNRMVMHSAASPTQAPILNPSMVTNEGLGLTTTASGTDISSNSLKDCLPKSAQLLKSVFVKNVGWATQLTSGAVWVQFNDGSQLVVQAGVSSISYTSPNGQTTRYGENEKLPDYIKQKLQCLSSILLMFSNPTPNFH

| SMILES | IC50 [1] [nM] | IC50 [2] [nM] | [Aurora A IC50 (nM)]/[PLK4 IC50 (nM)] [3] | [Aurora B IC50 (nM)]/[PLK4 IC50 (nM)] [4] |
| --- | --- | --- | --- | --- |
| COc1ccc2c(c1)[C@]1(C[C@H]1c1ccc3c(Nc4nc(C)nc(N5CCS(=O)(=O)CC5)c4OC)n[nH]c3c1)C(=O)N2 [Example 57, 4-[5-methoxy-6-({6-[(1R,2S)-5′-methoxy-2′-oxo-1′,2′-dihydrospiro[cyclopropane-1,3′-indol]-2-yl]-1H-indazol-3-yl}amino)-2-methylpyrimidin-4-yl]-1λ6-thiomorpholine-1,1-dione] | 5.08 | 3960 | 3527.559 | 831.2992 |
| COc1ccc2c(c1)[C@]1(C[C@H]1c1ccc3c(Nc4nc(N5CCS(=O)(=O)CC5)ncc4OC)n[nH]c3c1)C(=O)N2 [Example 190, 4-[5-methoxy-4-({6-[(1R,2S)-5′-methoxy-2′-oxo-1′,2′-dihydrospiro[cyclopropane-1,3′-indol]-2-yl]-1H-indazol-3-yl}amino)pyrimidin-2-yl]-1λ6-thiomorpholine-1,1-dione] | 2.66 | 5120 | 129.5378 | 279.1432 |
| COc1ccc2c(c1)[C@]1(C[C@H]1c1ccc3c(Nc4ncc(C(=O)N5CCOCC5)cc4OC)n[nH]c3c1)C(=O)N2 [Example 264, (1R,2S)-5′-methoxy-2-(3-{[3-methoxy-5-(morpholine-4-carbonyl)pyridin-2-yl]amino}-1H-indazol-6-yl)spiro[cyclopropane-1,3′-indol]-2′(1′H)-one] | 0.785 | 860 | 307.8980 | 66.6751 |
| COc1ccc2c(c1)[C@]1(C[C@H]1c1ccc3c(Nc4nc(C)ncc4OCC4CC4)n[nH]c3c1)C(=O)N2 [Example 146, (1R,2S)-2-(3-{[5-(cyclopropylmethoxy)-2-methylpyrimidin-4-yl]amino}-1H-indazol-6-yl)-5′-methoxyspiro[cyclopropane-1,3′-indol]-2′(1′H)-one] | 1.49 | 655 | 3512.4078 | 745.8082 |
| CCOc1cc(S(C)(=O)=O)cnc1Nc1n[nH]c2cc([C@@H]3C[C@@]34C(=O)Nc3ccc(OC)cc34)ccc12 [Example 208, (1R,2S)-2-(3-{[3-ethoxy-5-(methanesulfonyl)pyridin-2-yl]amino}-1H-indazol-6-yl)-5′-methoxyspiro[cyclopropano-1,3′-indol]-2′(1′H)-one] | 0.897 | 402 | 7904 | 2471 |
| COc1ccc2c(c1)[C@]1(C[C@H]1c1ccc3c(Nc4nc(C5CC5)ncc4Cl)n[nH]c3c1)C(=O)N2 [Example 116, (1R,2S)-2-(3-((5-chloro-2-cyclopropylpyrimidin-4-yl)amino)-1H-indazol-6-yl)-5′-methoxyspiro[cyclopropane-1,3′-indolin]-2′-one] | 2.89 | 134 | 788.5813 | 483.7370 |
| COc1ccc2c(c1)[C@]1(C[C@H]1c1ccc3c(Nc4ccc(C(=O)N5CCC(F)(F)CC5)nc4OC)n[nH]c3c1)C(=O)N2 [Example 185, (1R,2S)-2-(3-{[6-(4,4-difluoropiperidine-1-carbonyl)-2-methoxypyridin-3-yl]amino}-1H-indazol-6-yl)-5′-methoxyspiro[cyclopropane-1,3′-indol]-2′(1′H)-one] | 1.96 | 134 | 3240.7975 | 180.1636 |
| COc1ccc2c(c1)[C@]1(C[C@H]1c1ccc3c(Nc4ncc(N5CCOCC5)nc4OC)n[nH]c3c1)C(=O)N2 [Example 94, (1R,2S)-5′-methoxy-2-(3-{[3-methoxy-5-(morpholin-4-yl)pyrazin-2-yl]amino}-1H-indazol-6-yl)spiro[cyclopropane-1,3′-indol]-2′(1′H)-one] | 5.61 | 4600 | 533.856 | 41.732 |
| COc1ccc2c(c1)[C@]1(C[C@H]1c1ccc3c(Nc4nc(C)ncc4OC)n[nH]c3c1)C(=O)N2 [Example 87, (1R,2S)-5′-methozy-2-{3-[(5-methoxy-2-methylpyrimidin-4-yl)amino]-1H-indazol-6-yl}spiro[cyclopropane-1,3′-indol]-2′(1′H)-one] | 1.58 | 235 | 973.4177 | 133.9241 |
| CCS(=O)(=O)c1cc(OC)c(Nc2n[nH]c3cc([C@@H]4C[C@@]45C(=O)Nc4ccc(OC)cc45)ccc23)cn1 [Example 262, (1R,2S)-2-(3-{[6-(ethanesulfonyl)-4-methoxypyridin-3-yl]amino}-1H-indazol-6-yl)-5′-methoxyspiro[cyclopropane-1,3′-indol]-2′(1′H)-one] | 1.39 | 507 | 3488.1209 | 526.7 |
| COc1ccc2c(c1)[C@]1(C[C@H]1c1ccc3c(Nc4nc(N5CCOCC5)cnc4OC)n[nH]c3c1)C(=O)N2 [Example 99, (1R,2S)-5′-methoxy-2-(3-{[3-methoxy-6-(morpholin-4-yl)pyrazin-2-yl]amino)-1H-indazol-6-yl)spiro[cyclopropane-1,3′-indol]-2′(1′H)-one] | 5.8 | 565 | 155.05 | 129.9724 |
| COc1ccc2c(c1)[C@]1(C[C@H]1c1ccc3c(Nc4ccnc(N5CCOCC5)c4OC)n[nH]c3c1)C(=O)N2 [Example 95, (1R,2S)-5′-methoxy-2-(3-{[3-methoxy-2-(morpholin-4-yl)pyridin-4-yl]amino}-1H-induzol-6-yl)spiro[cyclopropane-1,3′-indol]-2′(1′H)-one] | 1.31 | 319 | 2386.677 | 54.26 |
| COc1ccc2c(c1)[C@]1(C[C@H]1c1ccc3c(Nc4nc(Cl)nc5ccn(C)c45)n[nH]c3c1)C(=O)N2 [Example 171, (1R,2S)-2-{3-[(2-chloro-5-methyl-5H-pyrrolo[3,2-d]pyrimidin-4-yl)amino]-1H-indazol-6-yl}-5′-methoxyspiro[cyclopropane-1,3′-indol]-2′(1′H)-one] | 5.87 | 1520 | 1176.6309 | 259.2403 |
| COc1ccc2c(c1)[C@]1(C[C@H]1c1ccc3c(Nc4cc(C)nnc4OC)n[nH]c3c1)C(=O)N2 [Example 145, (1R,2S)-5′-methoxy-2-{3-[(3-methoxy-6-methylpyridazin-4-yl)amino]-1H-indazol-6-yl}spiro[cyclopropane-1,3′-indol]-2′(1′H)-one] | 5.82 | 2920 | 1001.5467 | 280.8043 |
| COc1ccc2c(c1)[C@]1(C[C@H]1c1ccc3c(Nc4nc(Cl)nc5ccoc45)n[nH]c3c1)C(=O)N2 [Example 165, (1R,2S)-2-{3-[(2-chlorofuro[3,2-d]pyrimidin-4-yl)amino]-1H-indazol-6-yl}-5′-methoxyspiro[cyclopropane-1,3′-indol]-2′(1′H)-one] | 4.68 | 1060 | 111.2559 | 76.9329 |
| COc1ccc2c(c1)[C@]1(C[C@H]1c1ccc3c(Nc4nc(C)ncc4OC)n[nH]c3c1F)C(=O)N2 [Example 123, (1R,2R)-2-{7-fluoro-3-[(5-methoxy-2-methylpyrimidin-4-yl)amino]-1H-indazol-6-yl}-5′-methoxyspiro[cyclopropane-1,3′-indol]-2′(1′H)-one] | 4.8 | 2110 | 667.5698 | 84.1 |
| CCOc1cc(S(=O)(=O)N2CCN(C)CC2)cnc1Nc1n[nH]c2cc([C@@H]3C[C@@]34C(=O)Nc3ccc(OC)cc34)ccc12 [Example 273, (1R,2S)-2-(3-{[3-ethoxy-5-(4-methylpiperazine-1-salfonyl)pyridin-2-yl]amino)-1H-indazol-6-yl)-5′-methoxyspiro[cyclopropane-1,3′-indol]-2′(1′H)-one] | 1.45 | 1700 | 3483.1383 | 2831.3833 |
| COc1ccc2c(c1)[C@]1(C[C@H]1c1ccc3c(Nc4nc(C5CC5)nc(N5CCOCC5)c4OC)n[nH]c3c1)C(=O)N2 [Example 51, (1R,2S)-2-(3-1[2-cyclopropyl-5-methoxy-6-(morpholin-4-yl)pyrimidin-4-yl]aminol-1H-indezol-6-yl)-5′-methoxyapiro[cyclopropane-1,3′-indol]-2′(1′H)-one] | 1.23 | 143 | 3031.656 | 1241.883 |
